Converted amounts (≈) assume the structure as drawn. Like-named read-outs stand apart in the source and are kept apart here. Each block holds one compound with its values, some of them ahead of it.
Key:
[1] = Solubility test of the crystal form A; assay type: physicochemical; conditions: thermodynamic from solid, room temperature
Procedure: Experimental Method: about 2.0 mg sample was weighed and placed into a 1.5 mL borosilicate glass bottle, followed by addition of the following solvents with a pipetting gun respectively, and appropriate ultrasonic treatment was performed for dissolving. The test was carried out at room temperature, and the dissolution was detected by naked eye.

[2] = Hygroscopicity by dynamic vapor sorption (DVS); assay type: physicochemical
Procedure: 1.4 Dynamic Vapor Sorption (DVS) Instrument model: SMS DVS Advantage dynamic vapor sorption analyzer Detection conditions: samples (10 mg to 15 mg) were placed in a DVS sample tray for detection. The detailed DVS parameters are as follows: Temperature: 25° C. Equilibrium: dm/dt=0.01%/min (shortest: 10 min, longest: 180 min) Drying: 120 minutes at 0% RH RH (%) gradient for testing: 10% RH (%) gradient range for testing: 0%-90%-0% The hygroscopicity was evaluated using the following scales: [table] Experimental Method: a sample (10-15 mg) was placed in a DVS sample tray for testing, and analyzed by dynamic vapor sorption (DVS) method.

[3] = Thermal gravimetric analysis (TGA); assay type: physicochemical
Procedure: 1.3 Thermal Gravimetric Analyzer (TGA)
Instrument Model: TA Q5000 thermal gravimetric analyzer
Detection method: samples (2 mg to 5 mg) were placed in a TGA platinum crucible for detection, and heated from room temperature to 210° C. with a heating rate of 10° C./min under the condition of 25 mL/min N2.

[4] = test system: NDM-1 carbapenemase-producing Klebsiella Pneumoniae; assay: In vitro synergistic inhibitory concentration (SIC) assay, broth microdilution MIC; assay type: cell-based; conditions: for MIC50 / MIC90: Klebsiella pneumoniae; for MIC50 / MIC90 / drug resistance rate / sensitive rate / MIC range: NDM-1, 8 strains; for MIC50 / MIC90 / MIC range: enzyme inhibitor fixed at 4 g/mL (so in the source); for drug resistance rate / sensitive rate: by the S/R criteria
Procedure: (§1) The minimum inhibitory concentration (MIC) of the compound of formula (I) against clinically isolated carbapenemase-producing strains was determined by the broth microdilution method.
(§2) 1. Drug susceptibility test: the MIC of commonly used antibacterial drugs against clinically isolated bacteria was determined by the broth microdilution method according to the antimicrobial susceptibility test method described in the 2016 edition of the U.S. Clinical and Laboratory Standards Institute (CLSI) document.
(§3) 2. Strains: 8 KPC-2 carbapenemase-producing strains, 8 NDM-1 metalloenzyme-producing strains, 6 OXA carbapenemase-producing strains, and all strains were clinically isolated Klebsiella pneumoniae.
(§4) 4. Quality control strains: the quality control strains for the drug susceptibility test included Escherichia coli ATCC 25922 and ATCC 35218.

[5] = test system: KPC-2 carbapenemase-producing Klebsiella Pneumoniae; assay: as above; assay type: cell-based; conditions: for drug resistance rate / sensitive rate: by the S/R criteria; for MIC50 / MIC90: Klebsiella pneumoniae
Procedure: as §1, §2, §3, §4

[6] = test system: OXA-181 carbapenemase-producing Klebsiella Pneumoniae; assay: as above; assay type: cell-based; conditions: for MIC50 / MIC90: Klebsiella pneumoniae; for drug resistance rate / sensitive rate: by the S/R criteria
Procedure: as §1, §2
2. […]
as §4

[7] = Study on polymorphism, solvent scheme 1 (suspension); assay type: physicochemical; conditions: 40° C. in the dark for 2 days, XRPD
Procedure: 1. Three samples of about 35 mg of the compound of formula (I) were weighed and placed into 1.5 mL borosilicate glass bottles, respectively, followed by addition of 200 μL of solvent (see Table 2 for the solvent scheme). The obtained mixture was mixed evenly with ultrasound and then placed on a thermostatic oscillator, stirred at 40° C. in the dark for 2 days, and centrifuged quickly. The obtained solid was subjected to XRPD detection (wet product), and then dried in a vacuum dryer at 30° C. for about 15 hours. The obtained dry product was subjected to XPRD detection (dry product).

pKa of side-chain group = assay type: physicochemical; conditions: guanidinoxy group
[8] = Study on polymorphism, solvent scheme 2 (dissolved, evaporated to dryness); assay type: physicochemical; conditions: 40° C. 2 days, XRPD
Procedure: 2. Three samples of about 35 mg of compound of formula (I) were weighed and placed into 1.5 mL borosilicate glass bottles, respectively, followed by addition of 600 μL of a solvent (see Table 3 for the solvent scheme). The obtained mixture was mixed evenly with ultrasound and then placed on a thermostatic oscillator, stirred at 40° C. in the dark for 2 days. Then the samples was placed into a fume hood and evaporated to dryness. The obtained samples were subjected to XRPD detection (wet product). The samples were placed in a vacuum dryer and dried at 30° C. for about 15 hours. The obtained dried samples were subjected to XRPD detection (dry product).

[9] = test system: Klebsiella pneumoniae (ATCC BAA-1705, KPC-2); assay: Mouse lung infection model; assay type: in vivo; conditions: female CD-1 mice, ip, with ceftazidime, FIG. 5
Procedure: Female CD-1 mice of about 7 weeks old, weighing 26-28 g; cyclophosphamide was injected at a dose of 150 mg/kg 4 days before infection, and further 100 mg/kg 1 day before infection; the bacteria for infection was Klebsiella pneumoniae (ATCC BAA-1705, KPC-2). The compound of formula (I) and the reference compound OP-0595 were synthesized in the laboratory.
Female CD-1 mice were infected with Klebsiella pneumoniae by intranasal instillation. Each mouse was instilled with 50 μL of bacterial liquid through nasal cavity at a dose of 3.14E+07 CFU per mouse. At 2 h, 4 h, 6 h and 8 h after infection, each group of mice were treated with a corresponding compound or a combination of compounds by intraperitoneal injection.
At 10 h after infection, the mice in groups 1, 2 and 3 were euthanized, and the lungs were taken out and placed in 50 mL centrifuge tubes containing 10 mL of sterile normal saline, the tubes were placed on wet ice and transferred to BSL-2 laboratory for CFU counting. […]
The lungs were ground with an IKA T10 homogenizer (the maximum speed was 20S, repeated once). […] After 24 hours, the plate was taken out and the number of single colonies grown in each homogenate with a gradient dilution on the plate was counted, and the amount of bacterial load in the lung of each mouse was calculated.

[10] = KPC-2, 8 strains, enzyme inhibitor fixed at 4 g/mL (so in the source)
[11] = OXA-181, 7 strains, enzyme inhibitor fixed at 4 g/mL (so in the source)

solubility ([1]; aqueous with cosolvent or surfactant or cyclodextrin, Acetone-water (1:2)): 20500 to 34200 µg/mL (≈ 53.6 to 89.4 mM)
solubility ([1]; aqueous with cosolvent or surfactant or cyclodextrin, Acetonitrile-water (1:1)): > 103000 µg/mL
solubility ([1]; aqueous with cosolvent or surfactant or cyclodextrin, Ethanol-water (1:1)): 10100 to 20200 µg/mL (≈ 26.4 to 52.8 mM)
solubility ([1]; aqueous with cosolvent or surfactant or cyclodextrin, Ethanol-water (3:1)): < 2000 µg/mL
solubility ([1]; aqueous with cosolvent or surfactant or cyclodextrin, Isopropanol-water (1:1)): 6800 to 10200 µg/mL (≈ 17.8 to 26.7 mM)
solubility ([1]; aqueous with cosolvent or surfactant or cyclodextrin, Methanol-water (1:1)): 4100 to 5200 µg/mL (≈ 10.7 to 13.6 mM)
solubility ([1]; aqueous with cosolvent or surfactant or cyclodextrin, Methanol-water (3:1)): 2100 to 2600 µg/mL (≈ 5.49 to 6.8 mM)
solubility ([1]; organic solvent or mixture, 1,4-Dioxane): < 2100 µg/mL
solubility ([1]; organic solvent or mixture, 2-Methyltetrahydrofuran): < 2000 µg/mL
solubility ([1]; organic solvent or mixture, Acetone): < 1900 µg/mL
solubility ([1]; organic solvent or mixture, Acetonitrile): < 1900 µg/mL
solubility ([1]; organic solvent or mixture, Butanone): < 2000 µg/mL
solubility ([1]; organic solvent or mixture, Cyclohexane): < 2100 µg/mL
solubility ([1]; organic solvent or mixture, Ethanol): < 1900 µg/mL
solubility ([1]; organic solvent or mixture, Ethyl acetate): < 2000 µg/mL
solubility ([1]; organic solvent or mixture, Isopropanol): < 2000 µg/mL
solubility ([1]; organic solvent or mixture, Isopropyl acetate): < 2000 µg/mL
solubility ([1]; organic solvent or mixture, Methanol): < 1900 µg/mL
solubility ([1]; organic solvent or mixture, Methyl isobutyl ketone): < 2000 µg/mL
solubility ([1]; organic solvent or mixture, Methyl tert-butyl ether): < 2000 µg/mL
solubility ([1]; organic solvent or mixture, Tetrahydrofuran): < 2000 µg/mL
solubility ([1]; organic solvent or mixture, Toluene): < 2000 µg/mL
solubility ([1]; organic solvent or mixture, n-Butanol): < 2000 µg/mL
solubility ([1]; organic solvent or mixture, n-Heptane): < 2000 µg/mL
solubility ([1]; Water): 10200 to 20400 µg/mL (≈ 26.7 to 53.4 mM)
hygroscopic weight gain ΔW ([2]; DVS, 25° C./80% RH): 0.2910%
hygroscopicity scale ([2]; DVS, 25° C./80% RH): low hygroscopicity
crystal form after DVS (XRPD) ([2]; after DVS test): the crystal form has not changed
thermal stability ([3]; TGA): good thermal stability
TGA weight loss ([3]; heated to 194.61° C.): 0.5689%
SMILES: N=C(N)NOCCONC(=O)C1CCC2CN1C(=O)N2OS(=O)(=O)O (stereo not drawn)

MIC50 [4]: 64 µg/mL
SMILES: C[C@H]1[C@H](NC(=O)/C(=N\OC(C)(C)C(=O)O)c2csc(N)n2)C(=O)N1S(=O)(=O)O [Aztreonam]

SMILES: CC(C)(O/N=C(\C(=O)N[C@@H]1C(=O)N2C(C(=O)[O-])=C(C[n+]3ccccc3)CS[C@H]12)c1csc(N)n1)C(=O)O [Ceftazidime]
drug resistance rate ([5]; KPC-2, 8 strains): 100
sensitive rate ([5]; KPC-2, 8 strains): 0
MIC range [5, 10]: 64 to 128 µg/mL
MIC50 [5, 10]: > 128 µg/mL
MIC90 ([5]; KPC-2, 8 strains, enzyme inhibitor fixed at 4 g/mL (so in the source), read-out: MIC90): > 128 µg/mL
MIC50 [4]: > 128 µg/mL
MIC90 [4]: > 128 µg/mL
drug resistance rate [4]: 100
sensitive rate [4]: 0
MIC range [4]: >128 µg/mL
MIC50 [6, 11]: > 128 µg/mL
MIC90 [6, 11]: > 128 µg/mL
drug resistance rate ([6]; OXA-181, 7 strains): 100
sensitive rate ([6]; OXA-181, 7 strains): 0

SMILES: C[C@@H](O)[C@H]1C(=O)N2C(C(=O)O)=C(S[C@@H]3CN[C@H](C(=O)N(C)C)C3)[C@H](C)[C@H]12 [Meropenem]
drug resistance rate ([5]; KPC-2, 8 strains): 100
sensitive rate ([5]; KPC-2, 8 strains): 0
MIC90 [5]: 128 µg/mL
MIC50 [5, 10]: 64 µg/mL
MIC50 [4]: 4 µg/mL
MIC90 [4]: 32 µg/mL
drug resistance rate [4]: 75
sensitive rate [4]: 0
MIC range [4]: 2 to 32 µg/mL
MIC50 [6, 11]: 0.5 µg/mL
MIC90 [6, 11]: 2 µg/mL
drug resistance rate ([6]; OXA-181, 7 strains): 0
sensitive rate ([6]; OXA-181, 7 strains): 85.7
MIC range [6, 11]: 0.5 to 2 µg/mL

Crystal form ([7]; Acetone): Crystal form A
Crystal form ([7]; Acetonitrile): Crystal form A
Crystal form ([7]; Cyclohexane): Crystal form A
Crystal form ([7]; Ethanol): Crystal form A
Crystal form ([7]; Ethanol-water (volume ratio 1:1)): Crystal form A
Crystal form ([7]; Ethanol-water (volume ratio 3:1)): Crystal form A
Crystal form ([7]; Ethyl acetate): Crystal form A
Crystal form ([7]; Isopropanol-water (volume ratio 1:1)): Crystal form A
Crystal form ([7]; Methanol): Crystal form A
Crystal form ([7]; Methanol-water (volume ratio 1:1)): Crystal form A
Crystal form ([7]; Methanol-water (volume ratio 3:1)): Crystal form A
Crystal form ([7]; Tetrahydrofuran): Crystal form A
Crystal form ([7]; Water): Crystal form A
pKa (pKa of side-chain group): 8.83
Crystal form ([8]; Acetone-water (volume ratio 1:2)): Crystal form A
Crystal form ([8]; Acetonitrile-water (volume ratio 1:1)): Crystal form A
SMILES: N=C(N)NOCCONC(=O)C1CCC2CN1C(=O)N2OS(=O)(=O)O (stereo not drawn) [the compound of formula (I)]
antibacterial activity (conclusion) ([5]; in combination with an antibiotic, KPC-2 type): strong antibacterial activity
inhibitory activity compared with avibactam ([4]; NDM-1 type carbapenemase-producing bacteria): significantly better than that of avibactam
antibacterial activity (conclusion) ([4]; in combination with an antibiotic, NDM-1 type): strong antibacterial activity
antibacterial activity (conclusion) ([6]; in combination with an antibiotic, OXA-181 type): strong antibacterial activity
reduction of the amount of bacterial load in the lung versus the reference group of OP-0595 ([9]; at two different doses (25 & 6.25 mpk; 50 & 12.5 mpk)): 0.5-1.5 logs
potency compared with OP-0595 [9]: significantly more potent than the reference compound OP-0595

Reference: patent US11180501B2, “Crystal form of β-lactamase inhibitor and preparation method therefor” (priority 2017, dated 2021)
